According to patent US11324799B2, “Gap junction intercellular communication modulators and their use for the treatment of diabetic eye disease” (ZEALAND PHARMA A/S, priority 2017, dated 2022):

Legend:
[1] = tested on: Rat retinal endothelial cells (RRECs); test: Scrape load dye transfer (SLDT) assay of GJIC; assay type: cell-based; details: HG (30 mM) medium, 100 nM, 3, 5 and 7 days
Protocol: (§1) Rat retinal endothelial cells (RRECs) were grown for 3, 5, and 7 days in normal (N; 5 mM) or HG (30 mM) medium; in parallel, cells grown in HG medium were exposed for 3, 5, and 7 days to 100 nM Danegaptide (DG), an AAP10 analogue, which stabilizes Cx43 mediated cell coupling. In addition, cells grown in N medium were treated with a Cx43 blocker (negative control) which inhibits GJ coupling, or a positive control AAP10, protecting GJIC. To determine GJIC, scrape load dye transfer (SLDT) assay was performed at the three time points. Similarly, cells were assessed for apoptosis and cell monolayer permeability by differential dye staining assay and in vitro permeability assay, respectively.

[2] = tested on: Rat retinal endothelial cells (RRECs); test: Apoptosis by differential dye staining assay; assay type: cell-based; details: HG (30 mM) medium, 100 nM, 3, 5 and 7 days
Protocol: as §1

[3] = tested on: Rat retinal endothelial cells (RRECs); test: In vitro cell monolayer permeability assay; assay type: cell-based; details: HG (30 mM) medium, 100 nM
Protocol: as §1

[4] = tested on: streptozotocin (STZ)-induced diabetic rats; test: Pilot study, 6 weeks of diabetes: AC and PL in retinal trypsin digests after intravitreal injection; assay type: in vivo, rat; details: n=3
Protocol: All animal studies were performed according to the ARVO Statement for the Use of Animals in Ophthalmic and Vision Research. In the pilot study to determine the optimal concentration of danegaptide, twelve Sprague-Dawley male rats, each weighing 200 g, were used. Nine of the twelve rats were injected intraperitoneally with streptozotocin (STZ) (55 mg/kg body weight) to induce diabetes for 6 weeks. The remaining 3 animals served as non-diabetic controls. After 6 weeks of diabetes, the animals were killed and retinas were isolated. In the follow-up study to determine the effect of 1000 nM danegaptide on the number of AC and PL, thirty-six Sprague-Dawley male rats, each weighing 200 g, were used. Thirty of the thirty-six rats were injected with STZ to induce diabetes for 15 weeks. The remaining six animals served as non-diabetic controls. […] Blood glucose levels were measured in each animal 2-3 times weekly and at the time of death. […]
RTDs were stained with periodic acid-Schiff and hematoxylin as described in Bobbie et al. (Reduced connexin 43 expression and its effect on the development of vascular lesions in retinas of diabetic mice. Investigative ophthalmology & visual science 2010; 51:3758-3763). Ten representative fields were imaged using a digital camera attached to a microscope and the images were analyzed for AC and PL. […]

[5] = tested on: streptozotocin (STZ)-induced diabetic rats; test: Follow-up study, 15 weeks of diabetes: AC and PL in retinal trypsin digests, intravitreal or osmotic pump delivery; assay type: in vivo, rat; details: for number of PL / development of AC: diabetic rats, 15 weeks; for number of AC (FIG. 2) / number of PL (FIG. 2): diabetic rat retinas
Protocol: All animal studies were performed according to the ARVO Statement for the Use of Animals in Ophthalmic and Vision Research. In the pilot study to determine the optimal concentration of danegaptide, twelve Sprague-Dawley male rats, each weighing 200 g, were used. Nine of the twelve rats were injected intraperitoneally with streptozotocin (STZ) (55 mg/kg body weight) to induce diabetes for 6 weeks. The remaining 3 animals served as non-diabetic controls. After 6 weeks of diabetes, the animals were killed and retinas were isolated. In the follow-up study to determine the effect of 1000 nM danegaptide on the number of AC and PL, thirty-six Sprague-Dawley male rats, each weighing 200 g, were used. Thirty of the thirty-six rats were injected with STZ to induce diabetes for 15 weeks. The remaining six animals served as non-diabetic controls. After 15 weeks of diabetes, the animals were killed and retinas were isolated. The glucose concentration in blood and urine were checked after 2 or 3 days after STZ injection to confirm diabetes status in the animals. Blood glucose levels were measured in each animal 2-3 times weekly and at the time of death. The diabetic group represented rats with blood glucose levels of >350 mg/dL. The diabetic rats received NPH insulin injection as needed to maintain blood glucose levels.
The enucleated eyes were placed in 10% formalin for at least 24 hrs. The eyes were then cut in half with a razor blade, and the retinas were isolated and placed into 0.5M glycine for 24-48 hrs. RTD was performed as described in Kuwabara & Cogan (Studies of retinal vascular patterns. I. Normal architecture. Archives of ophthalmology 1960; 64:904-911). Each retina went through a series of washes with 3% trypsin, and the non-vascular mass of the retina was removed. The retinal capillary network was then isolated and mounted onto a silane-coated slide.
RTDs were stained with periodic acid-Schiff and hematoxylin as described in Bobbie et al. (Reduced connexin 43 expression and its effect on the development of vascular lesions in retinas of diabetic mice. Investigative ophthalmology & visual science 2010; 51:3758-3763). Ten representative fields were imaged using a digital camera attached to a microscope and the images were analyzed for AC and PL. Apoptotic pericytes were identified as PL based on prominent histological characteristics, including basement membrane protrusion as empty shell. Capillaries devoid of both pericytes and endothelial cells were considered as AC.
To determine the optimal concentration of danegaptide (DG), a Cx43 gap junction coupler, two concentrations (200 nM or 1000 nM) were tested via intravitreal injections in streptozotocin (STZ)-induced diabetic rats. Diabetes was induced via STZ for 6 weeks and at the end of the study, eyes were enucleated, and retinas subjected to retinal trypsin digestion (RTD) for isolation of capillary networks and stained with Hematoxylin and Periodic Acid Schiff's (PAS) reagent to analyze the number of acellular capillaries (AC) and pericyte loss (PL). Based on this pilot study, 1000 nM danegaptide was injected intravitreally in the follow-up study to determine the effect of improved cell coupling on retinal vascular cell death. Additionally, danegaptide was administered systemically using osmotic pumps. The number of rats used in this study was at least 6 per group. Overall, rats were divided into 6 groups: wild type (WT) control rats, STZ-induced diabetic rats, diabetic rats intravitreally injected with danegaptide, diabetic rats intravitreally injected with water, diabetic rats systemically delivered with danegaptide, and diabetic rats systemically delivered with water. Diabetes was induced via STZ for 15 weeks and at the end of the study, retinas were isolated and subjected to RTD for analyses of AC and PL. […]

diabetic rats = test: In vivo permeability (IVP): extravasation of FITC-dextran in retinal capillaries; parameters: species or system rat; details: for vascular leakage (FIG. 3): diabetic rat retinas; for vascular leakage: 15 weeks
Protocol: To determine if improvement in Cx43-mediated gap junction intercellular communication (GJIC) prevents retinal vascular cell death and excess retinal vascular permeability, danegaptide was administered intravitreally or via osmotic pumps in rats. 60 male Sprague Dawley rats were randomly assigned into six groups, each consisting of 10 rats: non-diabetic rats, diabetic rats, diabetic rats intravitreally injected with DG (1000 nM concentration), diabetic rats intravitreally injected with sterile water as vehicle, diabetic rats treated systemically with DG (70 mg/mL to achieve 100 nM plasma DG concentration) via osmotic pumps, and diabetic rats treated systemically via osmotic pump with sterile water as control. Diabetes was induced for 15 weeks and at the end of the study all animals were examined and subsequently sacrificed and their retinas were examined for (i) in vivo permeability (IVP), (ii) RTD, and (iii) optical coherence tomography (OCT) for analyses of vascular leakage, AC and PL, and retinal thickness, respectively.
To determine the effect of improved cell-cell coupling on retinal vascular permeability under hyperglycemic stress, extravasation of FITC-dextran was assessed in the retinal capillaries following FITC-dextran tail vein injection performed shortly before animals were sacrificed.

[6] = tested on: Primary retinal endothelial cells from rats; test: Transcriptomic effects in an in vitro diabetic retinopathy model; assay type: cell-based, rat; details: HG medium
Protocol: The transcriptomic effects of danegaptide in an in vitro diabetic retinopathy model were investigated to 1) reveal transcriptomic changes in diabetic-like conditions with or without danegaptide and 2) associate functional effects previously observed to transcriptomic modifications and 3) identify pathways involved in danegaptide effects on relevant cells under diabetes-like conditions. Primary retinal endothelial cells from rats were plated for in vitro experiments under four experiments conditions, Normal Glucose medium (NG), High Glucose medium (HG), High Glucose medium+Danegaptide 100 nM (HG_DG100) and High Glucose medium+Danegaptide 1000 nM (HG_DG1000). The samples were assessed at four time points (4 hours after plating, 1 day after plating, 3 days after plating and 5 days after plating).

[7] = intravitreal (IV) injection vs IV injection of water
[8] = osmotic pumps (OP) vs water via OP

NCC(=O)N1C[C@H](NC(=O)c2ccccc2)C[C@H]1C(=O)O [danegaptide, (2S,4R)-1-(2-aminoacetyl)-4-benzoylamino-pyrrolidine-2-carboxylic acid] was tested, and the “GJIC (SLDT assay)” value [1] was “preserved GJIC”, the HG-induced apoptosis [2] was “rescued cells from HG-induced apoptosis at all three time points” and the cell monolayer permeability [3] was “significantly decreased by day 5”. The “number of PL (pericyte loss)” value ([4]; intravitreal injection 1000 nM, vs untreated diabetic rat retinas) was “significantly reduced”, the “number of AC (acellular capillaries)” value ([4]; intravitreal injection 200 or 1000 nM) was “decreased in the danegaptide treated groups but fell short of statistical significance” and the “number of PL” value ([5]; intravitreal 1000 nM) was 112±62 % of control. For the same compound, the “number of AC (FIG. 2)” value [5, 7] was “significantly reduced”, the “number of PL (FIG. 2)” value [5, 7] was “significantly reduced” and the “development of AC” value ([5]; intravitreal injections 1000 nM) was 134±28 % of control. For the same compound, the “number of AC (FIG. 2)” value [5, 8] was “significantly reduced”, the “number of PL (FIG. 2)” value [5, 8] was “significantly reduced” and the “development of AC” value ([5]; systemic (osmotic pump)) was 133±37 % of control. For the same compound, the “number of PL” value ([5]; systemic (osmotic pump)) was 103±65 % of control, the “vascular leakage (FIG. 3)” value (diabetic rats; IV injection vs IV injection of water) was “significantly reduced” and the “difference in vascular leakage between intravitreal and systemic treatment” value (diabetic rats; diabetic rats) was “no significant difference”. For the same compound, the vascular leakage (diabetic rats; intravitreal DG 1000 nM, diabetic rats) was 149±22 % of control, the “vascular leakage (FIG. 3)” value (diabetic rats; [8]) was “significantly reduced” and the vascular leakage (diabetic rats; systemic DG via osmotic pump (100 nM plasma target), diabetic rats) was 143±14 % of control. For the same compound, the “Fscn3 expression (downregulated in HG versus NG)” value [6] was “reverse by danegaptide”, the “expression of genes differentially expressed in high glucose vs normal glucose” value ([6]; 100 or 1000 nM, 4 h and 1 d) was “reverses expression of some genes” and the “Tpcn2 expression (downregulated in HG versus NG)” value ([6]; 4 h) was “reversed by danegaptide”. For the same compound, the “Cacybp expression (downregulated in HG versus NG)” value ([6]; 1 d) was “reversed by danegaptide” and the “expression of transcripts Dnm1I, Nucb2, Trmt10a (down-regulated under HG)” value ([6]; day 1) was “generally increased the expression”.
